These results are taken from patent US20110195911A1, “SYNTHETIC ANALOGS OF THE JUXTAMEMBRANE DOMAIN OF IGF1R AND USES THEREOF” (THE UNITED STATES OF AMERICA,AS REPRESENTED BY THE …, priority 2008, published 2011).

Test [1] concerns MCF-7 breast cancer cells. Nature of the test: MTT cell toxicity assay in MCF-7 breast cancer cells. It counts as cell-based. To be noted: MCF-7 cells, MTT; for GI50 / TGI: final 0.5% FBS, two days with compound; for TGI: concentration of total growth inhibition (cytostatic). On the procedure: Cell Toxicity Assays: MCF-7 (breast cancer), T47D (breast cancer), Colo 205 (colon cancer), JM-1 (rat hepatoma), Sk Me1-2 (melanoma), PLC (human hepatoma), and HepG2 (human hepatoma) cells were obtained from American Type Cell Culture Collection. MCF-7 cells were grown in RPMI medium supplemented with 10% Fetal Bovine Serum. The rest of the cell lines were grown in DMEM medium supplemented with 10% Fetal Bovine Serum.
MTT 43-(4,5-Dimethylthiazol-2-yl)-2,5-diphenyltetrazolium) cell assay was performed using MCF-7 breast cancer cells. For the assay, cells were seeded into 96 well plates in medium containing 1% Fetal Bovine Serum and 100 μL of a cell suspension containing 5000 cells per well. Wells containing medium-only, and wells containing untreated cells, served as controls.
Seeded cells were allowed to attach and grow in the wells for 24 hours. A 5 mM stock solution of each peptide was made by dissolving approximately 1 mg of peptide in appropriate amount of DMSO. 2 mL dilutions were used to make 0.2 μM, 1.0 μM, 5.0 μM, and 10.0 μM concentration solutions of the compounds in serum-free medium. 100 μl, of the resulting 2× solutions were added to the corresponding wells to provide a final FBS concentration of 0.5% and 0.1 μM, 0.5 μM, 2.5 μM, and 5.0 μM dilutions of inhibitors. The cells were incubated with test compounds for two days. The control wells were given 100 μL of medium to ensure maximum similarity to the test wells so that all of the wells had 200 μL of medium during the growth period. An individual plate was made for Time Zero, to which the dye was added at the time of addition of compounds.
An alternative potency assay was used to test compounds in MCF-7 (breast cancer), T47D (breast cancer), Colo 205 (colon cancer), JM-1 (rat hepatoma), Sk MeI-2 (melanoma), PLC (human hepatoma), and HepG2 (human hepatoma) cells. Cells were suspended at a concentration of approximately 5000 cells per 100 μL of suspension in a 5% FBS RPMI medium. The cells were seeded into 96-count wells and incubated over night. After one day's incubation, the 5% FBS medium was aspirated and replaced with 100 μL of no serum RPMI medium containing 1 mg Bovine Serum Albumin (BSA) per 1 mL RPMI. Various concentrations of the test compounds were prepared by dilution in no-serum medium containing 1 mg BSA/mL. 75 μL of the test compound solutions were added to the wells, and the cells were allowed to incubate for 15-20 minutes, after which time 25 μL of human recombinant IGF-1 (Peprotech) solution was added to the wells to attain final concentrations of 10 ng IGF-1/mL medium. The control wells were given 175 μL of no-serum medium in addition to 25 μL of IGF-1 solution. An individual plate was made for time zero, in which the medium was also aspirated and replaced with 175 μL of no-serum medium and 25 μL of IGF-1. 15 μL of MTT dye was added and let incubate for 4 hours, after which time a stop stop solubilization solution was added. The stop solution lysed the cells and released the dye reduced by the remaining living cells. Absorbance of the wells at 544 nm was determined by a FLUOstar/POLARstar Galaxy (BMG Lab Technologies GmbH) microplate reader. The activity was calculated from the data using the formula: 100×[(T−T0)/(C−T0)] for T>T0 and 100×[(T−T0)/T0] for T<T0, wherein T0 corresponds to cell density at the time of drug addition, “T” is the optical density of the test well after a 48-h period of exposure to test drug, and “C” is the control optical density. The GI50 measures the growth inhibitory power of the test agent, and is defined as the concentration of test drug where 100×(T−T0)/(C−T0)=50. The TGI is the concentration of test drug where 100×(T−T0)/(C−T0)=0. Thus, the TGI signifies a cytostatic effect.

Test [2] concerns the target Insulin-like growth factor 1 receptor (IGF1R) (UniProt P08069 31-1367, limits assumed). Nature of the test: cell-based or functional assay.

Where a SMILES comes first, the peptide text is derived from it. The star is where a group is joined. Palmitoyl = CCCCCCCCCCCCCCCC(=O)* Where only a bound is given, the exact number is not on record here.

Sequence of Insulin-like growth factor 1 receptor (IGF1R) (P08069 31-1367 limits assumed): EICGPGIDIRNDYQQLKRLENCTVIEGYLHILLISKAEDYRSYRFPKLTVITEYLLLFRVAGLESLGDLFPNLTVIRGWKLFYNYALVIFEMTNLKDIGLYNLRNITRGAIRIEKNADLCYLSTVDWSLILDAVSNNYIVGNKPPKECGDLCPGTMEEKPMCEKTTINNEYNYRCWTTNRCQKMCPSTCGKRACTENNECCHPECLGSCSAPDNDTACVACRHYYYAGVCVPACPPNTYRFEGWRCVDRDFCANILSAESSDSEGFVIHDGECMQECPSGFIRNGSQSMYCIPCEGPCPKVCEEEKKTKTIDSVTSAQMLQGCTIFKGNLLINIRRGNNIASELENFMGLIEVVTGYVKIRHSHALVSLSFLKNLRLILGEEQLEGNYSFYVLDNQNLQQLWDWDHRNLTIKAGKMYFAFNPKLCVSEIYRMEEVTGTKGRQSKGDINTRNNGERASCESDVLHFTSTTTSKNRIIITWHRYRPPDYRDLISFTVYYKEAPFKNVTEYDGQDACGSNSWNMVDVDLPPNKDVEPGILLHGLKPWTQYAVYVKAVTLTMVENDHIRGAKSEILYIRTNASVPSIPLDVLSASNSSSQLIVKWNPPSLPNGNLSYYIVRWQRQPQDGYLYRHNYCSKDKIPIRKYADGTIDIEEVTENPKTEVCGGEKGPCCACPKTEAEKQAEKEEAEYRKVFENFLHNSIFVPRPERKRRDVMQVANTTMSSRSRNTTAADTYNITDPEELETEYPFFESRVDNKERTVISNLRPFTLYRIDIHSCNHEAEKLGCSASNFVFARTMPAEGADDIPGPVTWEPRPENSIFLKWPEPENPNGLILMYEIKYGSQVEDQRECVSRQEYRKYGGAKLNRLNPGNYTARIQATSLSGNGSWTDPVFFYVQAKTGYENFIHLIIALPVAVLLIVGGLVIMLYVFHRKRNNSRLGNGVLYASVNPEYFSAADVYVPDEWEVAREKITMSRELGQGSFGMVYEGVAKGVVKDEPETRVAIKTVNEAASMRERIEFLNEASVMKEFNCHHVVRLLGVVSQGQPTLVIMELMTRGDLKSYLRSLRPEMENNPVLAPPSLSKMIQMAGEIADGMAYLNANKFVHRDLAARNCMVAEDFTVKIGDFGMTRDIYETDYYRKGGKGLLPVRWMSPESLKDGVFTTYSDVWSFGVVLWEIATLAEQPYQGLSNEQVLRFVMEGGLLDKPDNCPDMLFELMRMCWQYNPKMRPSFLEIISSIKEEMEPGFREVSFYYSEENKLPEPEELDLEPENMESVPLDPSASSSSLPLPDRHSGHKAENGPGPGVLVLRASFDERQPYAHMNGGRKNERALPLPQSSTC

Usually GI50 stands for the concentration that inhibits growth by half. As usually defined, the TGI is the concentration at which net growth stops. Take `CCCCCCCCCCCCCCCC(=O)N[C@@H](Cc1c[nH]cn1)C(=O)N[C@@H](CCCNC(=N)N)C(=O)N[C@@H](CCCCN)C(=O)N[C@@H](CCCNC(=N)N)C(=O)N[C@@H](CC(N)=O)C(=O)N[C@@H](CC(N)=O)C(=O)N[C@@H](CO)C(=O)N[C@@H](CCCNC(=N)N)C(=O)N[C@@H](CC(C)C)C(=O)NCC(=O)N[C@@H](CC(N)=O)C(=O)NCC(=O)N[C@H](C(=O)N[C@@H](CC(C)C)C(=O)N[C@@H](Cc1ccc(O)cc1)C(=O)N[C@@H](C)C(=O)N[C@@H](CO)C(=O)N[C@H](C(=O)N[C@@H](CC(N)=O)C(=O)N1CCC[C@H]1C(N)=O)C(C)C)C(C)C` [Peptide 23] (Palmitoyl-HRKRNNSRLGNGVLYASVNP-NH2): in test [1], the GI50 was determined as 0.1 ± 0.05 µM and the TGI was over 5 µM. In addition, in test [1] (comparison with related peptides), the “growth inhibition / potency in MCF-7 cells (in words)” value is listed as “increased the potency”.

For `CCCCCCCCCCCCCCCC(=O)N[C@H](C(=O)N[C@@H](Cc1ccccc1)C(=O)N[C@@H](Cc1c[nH]cn1)C(=O)N[C@@H](CCCNC(=N)N)C(=O)N[C@@H](CCCCN)C(=O)N[C@@H](CCCNC(=N)N)C(=O)N[C@@H](CC(N)=O)C(=O)N[C@@H](CC(N)=O)C(=O)N[C@@H](CO)C(=O)N[C@@H](CCCNC(=N)N)C(=O)N[C@@H](CC(C)C)C(=O)NCC(=O)N[C@@H](CC(N)=O)C(=O)NCC(=O)N[C@H](C(=O)N[C@@H](CC(C)C)C(=O)N[C@@H](Cc1ccc(O)cc1)C(=O)N[C@@H](C)C(=O)N[C@@H](CO)C(=O)N[C@H](C(=O)N[C@@H](CC(N)=O)C(N)=O)C(C)C)C(C)C)C(C)C` [Peptide 24] (Palmitoyl-VFHRKRNNSRLGNGVLYASVN-NH2), in test [1], the GI50 was determined as 0.1 ± 0.05 µM and the TGI is 1.1 ± 0.1 µM.

Consider `CCCCCCCCCCCCCCCC(=O)N[C@@H](CCCCN)C(=O)N[C@@H](CCCNC(=N)N)C(=O)N[C@@H](CC(N)=O)C(=O)N[C@@H](CC(N)=O)C(=O)N[C@@H](CO)C(=O)N[C@@H](CCCNC(=N)N)C(=O)N[C@@H](CC(C)C)C(=O)NCC(=O)N[C@@H](CC(N)=O)C(=O)NCC(=O)N[C@H](C(=O)N[C@@H](CC(C)C)C(=O)N[C@@H](Cc1ccc(O)cc1)C(N)=O)C(C)C` [Peptide 27, Pal-KRNNSRLGNGVLY-NH2] (Palmitoyl-KRNNSRLGNGVLY-NH2), for which, in test [1], the GI50 turned out to be 1.1 ± 0.06 µM and the total growth inhibition concentration (TGI) was found to be 2.5 ± 0.5 µM.

Take `CCCCCCCCCCCCCCCC(=O)N[C@@H](CCCNC(=N)N)C(=O)N[C@@H](CC(N)=O)C(=O)N[C@@H](CC(N)=O)C(=O)N[C@@H](CO)C(=O)N[C@@H](CCCNC(=N)N)C(=O)N[C@@H](CC(C)C)C(=O)NCC(=O)N[C@@H](CC(N)=O)C(=O)NCC(=O)N[C@H](C(=O)N[C@@H](CC(C)C)C(=O)N[C@@H](Cc1ccccc1)C(N)=O)C(C)C` [Peptide 29, Pal-RNNSRLGNGVLF-NH2] (Palmitoyl-RNNSRLGNGVLF-NH2): in test [1], the GI50 is 0.1 ± 0.005 µM and the total growth inhibition concentration (TGI) was 1.2 ± 0.05 µM.

`CCCCCCCCCCCCCCCC(=O)N[C@@H](CCCNC(=N)N)C(=O)N[C@@H](CC(N)=O)C(=O)N[C@@H](CC(N)=O)C(=O)N[C@@H](CO)C(=O)N[C@@H](CCCNC(=N)N)C(=O)N[C@@H](CC(C)C)C(=O)NCC(=O)N[C@@H](CC(N)=O)C(=O)NCC(=O)N[C@H](C(=O)N[C@@H](CC(C)C)C(N)=O)C(C)C` [Peptide 30, Pal-RNNSRLGNGVL-NH2] (Palmitoyl-RNNSRLGNGVL-NH2): in test [1], the GI50 is 1.7 ± 0.05 µM and the concentration for total growth inhibition (TGI) is 3.7 ± 0.05 µM.

Take `CCCCCCCCCCCCCCCC(=O)N[C@@H](CCCNC(=N)N)C(=O)N[C@@H](CC(N)=O)C(=O)N[C@@H](CC(N)=O)C(=O)N[C@@H](CO)C(=O)N[C@@H](CCCNC(=N)N)C(=O)N[C@@H](CC(C)C)C(=O)NCC(=O)N[C@@H](CC(N)=O)C(=O)NCC(=O)N[C@H](C(=O)N[C@@H](CC(C)C)C(=O)N[C@@H](Cc1ccc(O)cc1)C(=O)N[C@@H](C)C(N)=O)C(C)C` [Peptide 33, Pal-RNNSRLGNGVLYA-NH2] (Palmitoyl-RNNSRLGNGVLYA-NH2): in test [1], the 50% growth inhibitory concentration (GI50) was 0.1 ± 0.05 µM and the TGI is over 5 µM.

As for `CCCCCCCCCCCCCCCC(=O)N[C@@H](CCCNC(=N)N)C(=O)N[C@@H](CC(N)=O)C(=O)N[C@@H](CC(N)=O)C(=O)N[C@@H](CO)C(=O)N[C@@H](CCCNC(=N)N)C(=O)N[C@@H](CC(C)C)C(=O)NCC(=O)N[C@@H](CC(N)=O)C(=O)NCC(=O)N[C@H](C(=O)N[C@@H](CC(C)C)C(=O)N[C@@H](Cc1ccc(O)cc1)C(=O)N[C@@H](C)C(=O)N[C@@H](CO)C(N)=O)C(C)C` [Peptide 34, Pal-RNNSRLGNGVLYAS-NH2] (Palmitoyl-RNNSRLGNGVLYAS-NH2), in test [1], the GI50 was determined as 0.04 ± 0.001 µM and the concentration for total growth inhibition (TGI) was over 5 µM.

Take `CCCCCCCCCCCCCCCC(=O)N[C@@H](CCCNC(=N)N)C(=O)N[C@@H](CC(N)=O)C(=O)N[C@@H](CC(N)=O)C(=O)N[C@@H](CO)C(=O)N[C@@H](CCCNC(=N)N)C(=O)N[C@@H](CC(C)C)C(=O)NCC(=O)N[C@@H](CC(N)=O)C(=O)NCC(=O)N[C@H](C(=O)N[C@@H](CC(C)C)C(=O)N[C@@H](Cc1ccc(O)cc1)C(=O)N[C@@H](C)C(=O)N[C@@H](CO)C(=O)N[C@H](C(N)=O)C(C)C)C(C)C` [Peptide 35, Pal-RNNSRLGNGVLYASV-NH2] (Palmitoyl-RNNSRLGNGVLYASV-NH2): in test [1], the GI50 stood at 0.05 ± 0.001 µM and the TGI came out at 2.5 ± 0.5 µM.

B1: peptide 1 (Pal-HRKRNNSRLGNG-NH2) (peptide)
peptide: Palmitoyl-HRKRNNSRLGNG-NH2
SMILES: CCCCCCCCCCCCCCCC(=O)N[C@@H](Cc1c[nH]cn1)C(=O)N[C@@H](CCCNC(=N)N)C(=O)N[C@@H](CCCCN)C(=O)N[C@@H](CCCNC(=N)N)C(=O)N[C@@H](CC(N)=O)C(=O)N[C@@H](CC(N)=O)C(=O)N[C@@H](CO)C(=O)N[C@@H](CCCNC(=N)N)C(=O)N[C@@H](CC(C)C)C(=O)NCC(=O)N[C@@H](CC(N)=O)C(=O)NCC(N)=O
For the molecule B1, in test [2], the “GI50 (µM), MTT assay, MCF-7 cells” value is 1.8 µM and the “TGI (µM), MTT assay, MCF-7 cells” value is over 5 µM.

B2: peptide 5 (Pal-HRKRNNSRLGNGVLYASV-NH2) (peptide)
peptide: Palmitoyl-HRKRNNSRLGNGVLYASV-NH2
SMILES: CCCCCCCCCCCCCCCC(=O)N[C@@H](Cc1c[nH]cn1)C(=O)N[C@@H](CCCNC(=N)N)C(=O)N[C@@H](CCCCN)C(=O)N[C@@H](CCCNC(=N)N)C(=O)N[C@@H](CC(N)=O)C(=O)N[C@@H](CC(N)=O)C(=O)N[C@@H](CO)C(=O)N[C@@H](CCCNC(=N)N)C(=O)N[C@@H](CC(C)C)C(=O)NCC(=O)N[C@@H](CC(N)=O)C(=O)NCC(=O)N[C@H](C(=O)N[C@@H](CC(C)C)C(=O)N[C@@H](Cc1ccc(O)cc1)C(=O)N[C@@H](C)C(=O)N[C@@H](CO)C(=O)N[C@H](C(N)=O)C(C)C)C(C)C
Turning to B2, in test [2], the “GI50 (µM), MTT assay, MCF-7 cells” value was 0.45 µM and the “TGI (µM), MTT assay, MCF-7 cells” value came out at 1.45 µM.

B3: peptide 23 (Pal-HRKRNNSRLGNGVLYASVNP-NH2) (peptide)
peptide: Palmitoyl-HRKRNNSRLGNGVLYASVNP-NH2
SMILES: CCCCCCCCCCCCCCCC(=O)N[C@@H](Cc1c[nH]cn1)C(=O)N[C@@H](CCCNC(=N)N)C(=O)N[C@@H](CCCCN)C(=O)N[C@@H](CCCNC(=N)N)C(=O)N[C@@H](CC(N)=O)C(=O)N[C@@H](CC(N)=O)C(=O)N[C@@H](CO)C(=O)N[C@@H](CCCNC(=N)N)C(=O)N[C@@H](CC(C)C)C(=O)NCC(=O)N[C@@H](CC(N)=O)C(=O)NCC(=O)N[C@H](C(=O)N[C@@H](CC(C)C)C(=O)N[C@@H](Cc1ccc(O)cc1)C(=O)N[C@@H](C)C(=O)N[C@@H](CO)C(=O)N[C@H](C(=O)N[C@@H](CC(N)=O)C(=O)N1CCC[C@H]1C(N)=O)C(C)C)C(C)C
As for B3, in test [2], the “GI50 (µM), MTT assay, MCF-7 cells” value came to 0.1 µM and the “TGI (µM), MTT assay, MCF-7 cells” value was over 5 µM.
